These are literature values, as cited in patent publication US20100210792A1, “DRUG DELIVERY” (priority 2006, published 2010).

The conditions of the series: Table 1 drug list.
Regarding `Cc1c(OCC(F)(F)F)ccnc1C[S+]([O-])c1nc2ccccc2[nH]1` (centres unmarked) [Lansoprazole], the Hydrophobic result is given as “YES”. On to `CN[C@H]1CC[C@@H](c2ccc(Cl)c(Cl)c2)c2ccccc21` [Sertradine], for which the Hydrophobic result is recorded as “YES”. As for `CC(C)c1nc(N(C)S(C)(=O)=O)nc(-c2ccc(F)cc2)c1/C=C/[C@@H](O)C[C@@H](O)CC(=O)O` [Rosuvastatin], the Hydrophobic result is “YES”. In the case of `CC[C@H]1OC(=O)[C@H](C)[C@@H](O[C@H]2C[C@@](C)(OC)[C@@H](O)[C@H](C)O2)[C@H](C)[C@@H](O[C@@H]2O[C@H](C)C[C@H](N(C)C)[C@H]2O)[C@](C)(OC)C[C@@H](C)C(=O)[C@H](C)[C@@H](O)[C@]1(C)O` [Clarithromycin], the Hydrophobic result was “YES”. Take `Cc1nc2n(c(=O)c1CCN1CCC(c3noc4cc(F)ccc34)CC1)CCCC2` [Risperidone, 4-[2-[4-(6-fluorobenzo[d]isoxazol-3-yl)-1-piperidyl]ethyl]-3-methyl-2,6-diazabicyclo[4.4.0]deca-1,3-dien-5-one]: the Hydrophobic result is reported as “YES”.

Take `OCCOCCN1CCN(C2=Nc3ccccc3Sc3ccccc32)CC1` [Quetiapine]: the Hydrophobic entry is reported as “YES”. For the molecule `CC(C)c1c(C(=O)Nc2ccccc2)c(-c2ccccc2)c(-c2ccc(F)cc2)n1CC[C@@H](O)C[C@@H](O)CC(=O)O` [Atorvastatin], the Hydrophobic result is recorded as “YES”.

Regarding `COc1ccc2nc([S@@+]([O-])Cc3ncc(C)c(OC)c3C)[nH]c2c1` [Esomeprazole], the Hydrophobic result is reported as “YES”.
